Results taken from patent US8916702B2 (priority 2012, dated 2014).
Like-named read-outs stand apart in the source and are kept apart here.

Tested on: HCV pseudoparticles (genotype 1a HCV E1 and E2 envelope, H77C isolate)
Assay: microbe, parasite or virus in culture
Assay type: cell-based
Settings: Hepatitis C virus
[1] = Huh-7, 48 h, read-out: Activity (EC50 class), HCV pseudoparticle infection of Huh7 cells, luciferase 2 days after infection, EC50 expressed as class A/B
[2] = Huh-7, 48 h, read-out: Activity (EC50 class), HCV pseudoparticles, Huh7 cells, luciferase 2 days after infection, average of duplicates
[3] = Huh-7, read-out: Activity (EC50 class), HCV pseudoparticles (genotype 1a, H77C) in Huh7 cells, EC50 expressed as class A/B
[4] = Huh-7, 48 h, HCV pseudoparticle infection of Huh7 cells, luciferase 2 days after infection, average of duplicates
[5] = Huh-7, 48 h, HCV pseudoparticles (genotype 1a, H77C) in Huh7 cells, average of duplicate, luciferase 2 days after infection

SMILES	EC50 [1] [nM]	EC50 [3] [nM]	other results
Cc1ccc(CNC(=O)C(=O)NCC[C@H](NC(=O)c2ccc(Nc3nc(NC4(c5ccc(Cl)cc5)CC4)nc(OCC(F)(F)F)n3)cc2)C(=O)O)cc1 [Compound 1185]	0.01 to 10	–	–
O=C(NCC[C@H](NC(=O)c1ccc(Nc2nc(NC3(c4ccc(Cl)cc4)CC3)nc(OCC(F)(F)F)n2)cc1)C(=O)O)C(=O)Nc1ccc(OCCN2CCCCC2)nc1 [Compound 3661]	–	–	EC50 [2]: 0.01 to 10 nM
CN(CCCN(C)C(=O)c1ccc(Nc2nc(NC3(c4ccc(Cl)cc4)CC3)nc(OCC(F)(F)F)n2)cc1)C(=O)C(=O)Nc1cccc(F)c1 [Compound 3410]	–	0.01 to 10	–
O=C(NCC[C@H](NC(=O)c1ccc(Nc2nc(NC3(c4ccc(Cl)cc4)CC3)nc(OCC(F)(F)F)n2)cc1)C(=O)O)C(=O)Nc1cccc(CN2CCCC2)c1 [Compound 3647]	–	–	EC50 [2]: 0.01 to 10 nM
C=Cc1cccc(NC(=O)C(=O)NCC(C)(C)CNC(=O)c2ccc(Nc3nc(NC4(c5ccc(Cl)cc5)CC4)nc(OCC(F)(F)F)n3)cc2)c1 [Compound 3670]	–	–	EC50 [2]: 0.01 to 10 nM
O=C(Nc1ccccc1)C(=O)N1CCCC(CNC(=O)c2ccc(Nc3nc(NC4(c5ccc(Cl)cc5)CC4)nc(OCC(F)(F)F)n3)cc2)C1 (stereo not shown) [Compound 3488]	–	0.01 to 10	–
CN(C)C(=O)C(=O)NC[C@H](NC(=O)c1ccc(Nc2nc(NC3(c4ccc(Cl)cc4)CC3)nc(OCC(F)(F)F)n2)cc1)C(=O)OCCN1CCOCC1 [Compound 1022, (S)-2-morpholinoethyl 2-(4-(4-(1-(4-chlorophenyl)cyclopropylamino)-6-(2,2,2-trifluoroethoxy)-1,3,5-triazin-2-ylamino)benzamido)-3-(2-(dimethylamino)-2-oxoacetamido)propanoate]	0.01 to 10	–	EC50 [4]: 7.11 nM
COC(=O)[C@H](CCNC(=O)C(=O)Nc1ccc(-n2ccnc2)cc1)NC(=O)c1ccc(Nc2nc(NC3(c4ccc(Cl)cc4)CC3)nc(OCC(F)(F)F)n2)cc1 [Compound 3300]	–	10 to 1000	–
COC(=O)[C@H](CNC(=O)C(=O)NCCc1ccccc1OC)NC(=O)c1ccc(Nc2nc(NC3(c4ccc(Cl)cc4)CC3)nc(OCC(F)(F)F)n2)cc1 [Compound 1285]	0.01 to 10	–	–
CC(C)(CNC(=O)C(=O)NCc1ccc(F)cc1)CNC(=O)c1ccc(Nc2nc(NC3(c4ccc(Cl)cc4)CC3)nc(OCC(F)(F)F)n2)cc1 [Compound 1549]	0.01 to 10	–	–
COC(=O)[C@H](CCNC(=O)C(=O)NCCn1cncn1)NC(=O)c1ccc(Nc2nc(NC3(c4ccc(Cl)cc4)CC3)nc(OCC(F)(F)F)n2)cc1 [Compound 1321]	0.01 to 10	–	–
COC(=O)[C@H](CNC(=O)C(=O)Nc1cccc(-c2ccncc2)c1)NC(=O)c1ccc(Nc2nc(NC3(c4ccc(Cl)cc4)CC3)nc(OCC(F)(F)F)n2)cc1 [Compound 3712]	–	–	EC50 [2]: 0.01 to 10 nM
CC(C)(CNC(=O)C(=O)Nc1cccc(C(=O)c2ccccc2)c1)CNC(=O)c1ccc(Nc2nc(NC3(c4ccc(Cl)cc4)CC3)nc(OCC(F)(F)F)n2)cc1 [Compound 3078]	–	0.01 to 10	–
COC(=O)[C@H](CNC(=O)C(=O)Nc1ccc(-n2nnnc2C)cc1)NC(=O)c1ccc(Nc2nc(NC3(c4ccc(Cl)cc4)CC3)nc(OCC(F)(F)F)n2)cc1 [Compound 3107]	–	0.01 to 10	EC50 [5]: 0.92 nM
O=C(NCCCCNC(=O)c1ccc(Nc2nc(NC3(c4ccc(Cl)cc4)CC3)nc(OCC(F)(F)F)n2)cc1)C(=O)N1CCCCC1 [Compound 3401]	–	0.01 to 10	–
C=Cc1cccc(NC(=O)C(=O)NCC[C@@H](NC(=O)c2ccc(Nc3nc(NC4(c5ccc(Cl)cc5)CC4)nc(OCC(F)(F)F)n3)cc2)C(=O)OC)c1 [Compound 3574]	–	0.01 to 10	–
Cc1cc(NC(=O)C(=O)NCCCNC(=O)c2ccc(Nc3nc(NC4(c5ccc(Cl)cc5)CC4)nc(OCC(F)(F)F)n3)cc2)no1 [Compound 3343]	–	0.01 to 10	–
COC(=O)c1cccc(-c2ccccc2NC(=O)C(=O)NCC(C)(C)CNC(=O)c2ccc(Nc3nc(NC4(c5ccc(Cl)cc5)CC4)nc(OCC(F)(F)F)n3)cc2)c1 [Compound 3045]	–	0.01 to 10	–
O=C(NC/C(=N/C(=O)c1ccc(Nc2nc(NC3(c4ccc(Cl)cc4)CC3)nc(OCC(F)(F)F)n2)cc1)C(=O)O)C(=O)Nc1ccc(-n2cncn2)cc1 [Compound 3168]	–	0.01 to 10	–
NC(=O)c1ccc(NC(=O)C(=O)NC/C(=N/C(=O)c2ccc(Nc3nc(NC4(c5ccc(Cl)cc5)CC4)nc(OCC(F)(F)F)n3)cc2)C(=O)O)cc1 [Compound 3156]	–	0.01 to 10	–
Cc1nc(C(F)(F)F)ccc1NC(=O)C(=O)NCC(C)(C)CNC(=O)c1ccc(Nc2nc(NC3(c4ccc(Cl)cc4)CC3)nc(OCC(F)(F)F)n2)cc1 [Compound 3249]	–	0.01 to 10	–
COC(=O)[C@H](CNC(=O)C(=O)Nc1ccc(-c2cnco2)cc1)NC(=O)c1ccc(Nc2nc(NC3(c4ccc(Cl)cc4)CC3)nc(OCC(F)(F)F)n2)cc1 [Compound 3093]	–	0.01 to 10	–
Cc1cc(NC(=O)C(=O)NCC(O)CNC(=O)c2ccc(Nc3nc(NC4(c5ccc(Cl)cc5)CC4)nc(OCC(F)(F)F)n3)cc2)no1 (stereo not shown) [Compound 3364]	–	0.01 to 10	–
CC(C)(CNC(=O)c1ccc(Nc2nc(NC3(c4ccc(Cl)cc4)CC3)nc(OCC(F)(F)F)n2)cc1)NC(=O)C(=O)N1CCc2ccccc2C1 [Compound 3440]	–	0.01 to 10	–

SMILES	EC50 [1] [nM]	EC50 [3] [nM]	other results
O=C(NC[C@H](NC(=O)c1ccc(Nc2nc(NC3(c4ccc(Cl)cc4)CC3)nc(OCC(F)(F)F)n2)cc1)C(=O)Cl)C(=O)Nc1cccc(C(=O)c2ccccc2)c1 [Compound 3748]	–	–	EC50 [2]: 0.01 to 10 nM
COC(=O)[C@H](CNC(=O)C(=O)Nc1ccc(-c2ccccc2)cc1)NC(=O)c1ccc(Nc2nc(NC3(c4ccc(Cl)cc4)CC3)nc(OCC(F)(F)F)n2)cc1 [Compound 3083]	–	0.01 to 10	–
COc1cccc(CNC(=O)C(=O)NC[C@H](NC(=O)c2ccc(Nc3nc(NC4(c5ccc(Cl)cc5)CC4)nc(OCC(F)(F)F)n3)cc2)C(=O)O)c1 [Compound 1193]	0.01 to 10	–	EC50 [4]: 0.52 nM
CC(C)(CNC(=O)C(=O)Nc1ccnn1-c1ccccc1)CNC(=O)c1ccc(Nc2nc(NC3(c4ccc(Cl)cc4)CC3)nc(OCC(F)(F)F)n2)cc1 [Compound 3029]	–	0.01 to 10	EC50 [5]: 0.071 nM
O=C(NCC[C@@H](NC(=O)c1ccc(Nc2nc(NC3(c4ccc(Cl)cc4)CC3)nc(OCC(F)(F)F)n2)cc1)C(=O)O)C(=O)Nc1ccccc1Cl [Compound 1534]	0.01 to 10	–	–
CC(C)(CNC(=O)C(=O)Nc1cccnc1-c1ccccc1)CNC(=O)c1ccc(Nc2nc(NC3(c4ccc(Cl)cc4)CC3)nc(OCC(F)(F)F)n2)cc1 [Compound 3258]	–	0.01 to 10	–
Cc1ccc(NC(=O)C(=O)NCC(C)(C)CNC(=O)c2ccc(Nc3nc(NC4(c5ccc(Cl)cc5)CC4)nc(OCC(F)(F)F)n3)cc2)c(Cl)c1 [Compound 3378]	–	0.01 to 10	–
COC(=O)[C@H](CNC(=O)C(=O)NC1(Cc2ccccc2)CC1)NC(=O)c1ccc(Nc2nc(NC3(c4ccc(Cl)cc4)CC3)nc(OCC(F)(F)F)n2)cc1 [Compound 1304]	0.01 to 10	–	–
Cc1ccc(NC(=O)C(=O)NCC(C)CNC(=O)c2ccc(Nc3nc(NC4(c5ccc(Cl)cc5)CC4)nc(OCC(F)(F)F)n3)cc2)cc1Cl (stereo not shown) [Compound 3474]	–	0.01 to 10	–
O=C(NCC[C@@H](NC(=O)c1ccc(Nc2nc(NC3(c4ccc(Cl)cc4)CC3)nc(OCC(F)(F)F)n2)cc1)C(=O)O)C(=O)Nc1ccc(Cl)cc1 [Compound 1555]	0.01 to 10	–	–
COC(=O)[C@H](CCNC(=O)C(=O)NCc1cccc(F)c1)NC(=O)c1ccc(Nc2nc(NC3(c4ccc(Cl)cc4)CC3)nc(OCC(F)(F)F)n2)cc1 [Compound 1139]	0.01 to 10	–	–
COC(=O)[C@H](CNC(=O)C(=O)NCc1cc(F)ccc1F)NC(=O)c1ccc(Nc2nc(NC3(c4ccc(Cl)cc4)CC3)nc(OCC(F)(F)F)n2)cc1 [Compound 1154]	0.01 to 10	–	EC50 [4]: 1.07 nM
O=C(NCC[C@H](NC(=O)c1ccc(Nc2nc(NC3(c4ccc(Cl)cc4)CC3)nc(OCC(F)(F)F)n2)cc1)C(=O)O)C(=O)Nc1cccc(Oc2cccnc2)c1 [Compound 3662]	–	–	EC50 [2]: 0.01 to 10 nM
COCCNC(=O)C(=O)NC[C@H](NC(=O)c1ccc(Nc2nc(NC3(c4ccc(Cl)cc4)CC3)nc(OCC(F)(F)F)n2)cc1)C(=O)O [Compound 1046]	0.01 to 10	–	–
O=C(NC[C@H](NC(=O)c1ccc(Nc2nc(NC3(c4ccc(Cl)cc4)CC3)nc(OCC(F)(F)F)n2)cc1)C(=O)Cl)C(=O)Nc1cccc(Cl)c1 [Compound 3741]	–	–	EC50 [2]: 0.01 to 10 nM
Cc1cc(NC(=O)C(=O)NCC(C)(C)CNC(=O)c2ccc(Nc3nc(NC4(c5ccc(Cl)cc5)CC4)nc(OCC(F)(F)F)n3)cc2)ccc1Cl [Compound 3798]	–	–	EC50 [2]: 0.01 to 10 nM
COC(=O)[C@H](CCNC(=O)C(=O)Nc1ccc(-c2ccncc2)cc1)NC(=O)c1ccc(Nc2nc(NC3(c4ccc(Cl)cc4)CC3)nc(OCC(F)(F)F)n2)cc1 [Compound 1517]	0.01 to 10	–	–
COC(=O)[C@H](CNC(=O)C(=O)Nc1cccc(F)c1)NC(=O)c1ccc(Nc2nc(NC3(c4ccc(Cl)cc4)CC3)nc(OCC(F)(F)F)n2)cc1 [Compound 1249]	0.01 to 10	–	–
O=C(NC[C@H](NC(=O)c1ccc(Nc2nc(NC3(c4ccc(Cl)cc4)CC3)nc(OCC(F)(F)F)n2)cc1)C(=O)Cl)C(=O)Nc1cccc(-c2c[nH]cn2)c1 [Compound 3787]	–	–	EC50 [2]: 0.01 to 10 nM
CC(C)(CNC(=O)C(=O)Nc1ccc(C(=O)c2ccccc2)cc1)CNC(=O)c1ccc(Nc2nc(NC3(c4ccc(Cl)cc4)CC3)nc(OCC(F)(F)F)n2)cc1 [Compound 3142]	–	0.01 to 10	–
COc1cccc(C2CC2CNC(=O)C(=O)NCC[C@H](NC(=O)c2ccc(Nc3nc(NC4(c5ccc(Cl)cc5)CC4)nc(OCC(F)(F)F)n3)cc2)C(=O)O)c1 (stereo partly shown) [Compound 1423]	0.01 to 10	–	–
COC(=O)[C@H](CNC(=O)C(=O)NC1CCCCCCC1)NC(=O)c1ccc(Nc2nc(NC3(c4ccc(Cl)cc4)CC3)nc(OCC(F)(F)F)n2)cc1 [Compound 1068]	0.01 to 10	–	–
O=C(NCCCCNC(=O)c1ccc(Nc2nc(NC3(c4ccc(Cl)cc4)CC3)nc(OCC(F)(F)F)n2)cc1)C(=O)Nc1nccs1 [Compound 3399]	–	0.01 to 10	–
